# What was measured:
# [1] = system: cofilin (pS3) in rat pancreatic acini; assay: cofilin activation (phospho-pS3 cofilin Western blot) in isolated rat pancreatic acini; assay type: cell-based; details: for reversal of cofilin dephosphorylation by CCK-8: Wortmannin 1 µM, LY294002 100 µM, SB202190 10 µM, U0126 10 µM, Y-27632 10 µM 1 h, SP600125 20 µM 3 h; for decrease of basal level of cofilin phosphorylation / inhibition of cofilin activation stimulated by CCK-8: calyculin A 1 nM or okadaic acid 10 nM
# Procedure: Pancreatic acini preparations were obtained by collagenase digestion as previously described ([Bissonnette et al., 1984]; [Sato et al., 1989]; [Ramos-Alvarez and Jensen, 2018]). After collagenase digestion, dispersed acini were preincubated with different inhibitors in standard incubation solution ([Ramos-Alvarez and Jensen, 2018]; [Ramos-Ãlvarez et al., 2020]) for 3 h at 37°C under conditions specific for PKD/PKC, Src, PI3K, MAPKs, SSH1, LIMK, cofilin, other phosphatases and PAK4 inhibitors, as described previously ([Ramos-Alvarez and Jensen, 2018]; [Ramos-Ãlvarez et al., 2020]). Isolated acini and CCK1-R/Panc-1 cells (M&M 2.2.1) were also preincubated with two SSH1 inhibitors, D3 (25 μM, 1 h) ([Li et al., 2015]) or SE (50 μM, 3 h for acini; 24 h for CCK1-R/Panc-1 cells) ([Lee et al., 2017]). After preincubation, 1 mL aliquots of dispersed acini were incubated at 37°C for 3–15 min with CCK-8 (0.3 nM or 100 nM), for 5–15 min with TPA (1 µM) or without stimulants, used as control. Cells were lysed in lysis buffer (50 mM Tris/HCl pH 7.5, 150 mM NaCl, 1% Triton X-100, 1% deoxycholate, 0.1% sodium azide, 1 mM EGTA, 0.4 mM EDTA, 0.2 mM sodium orthovanadate, 1 mM PMSF, and one protease inhibitor tablet per 10 mL). After sonication, lysates were centrifuged at 10,000×g for 15 min at 4°C and protein concentration was measured using the Bio-Rad protein assay reagent. Finally, cells were processed as below for Western blotting.
# Both concentrations of CCK-8 were used because CCK-8 is reported to have different responses with physiological and supraphysiological concentrations contributing to physiological and pathophysiological processes such as pancreatitis ([Dufresne et al., 2006]).
# Western blotting and immunoprecipitation were performed as described previously ([Ramos-Alvarez and Jensen, 2018]). Whole cell lysates were subjected to SDS-PAGE using 4%–20% Tris–Glycine gels. […] Finally, membranes were then washed again twice in blocking buffer for 4 min, twice in washing buffer for 4 min, incubated for 4 min with chemiluminescence detection reagents. The intensity of the protein bands was measured using GeneTools software from Syngene, which were assessed in the linear detection range.
# All experiments were performed at least 3 times. Data are presented as mean ± SEM and were analyzed with the non-parametric Kruskal–Wallis analysis (data was not normally distributed) and the Dunn’s multiple comparison test using the GraphPad Prism 8.0 software. P values < 0.05 were considered significant.
# (A) Isolated pancreatic acini were incubated in the absence or presence of CCK-8 (100 nM), carbachol (1 μM), bombesin (1 nM), secretin (1 nM) or VIP (1 nM) for 1 min and then lysed. (B) Isolated pancreatic acini were incubated in the absence or presence of CCK-8 and CCK-JMV (at the indicate concentrations) for 3 min and then lysed. Western blots were analyzed using anti-pS3 cofilin, which mediates the activation state of cofilin. Bands were visualized using chemiluminescence and quantified by densitometry.
# [2] = system: JNK1-3; details: reversible ATP-competitive; reference not given; cited from earlier work
# Text: (Figure 10) In various tissues with difference stimuli, cofilin dephosphorylation and activation, has been reported to be mediated by PI3K, ROCK and various MAPKs (p38, p44/42, JNK) ([Won et al., 2008]; [Duan et al., 2014]), therefore we assessed their possible role in CCK-8-stimulated cofilin activation. Previous studies have shown that, in pancreatic acini and/or other tissues, CCK-8 activates each of these signaling cascades ([Berna et al., 2009]; [Camello-Almaraz et al., 2009]; [Ramos-Alvarez and Jensen, 2018]; [Ramos-Ãlvarez et al., 2020]). In order to address the role of these signal cas ...
# [3] = system: cofilin in human T lymphocytes; details: stimulated by CD2 or CD28; ref Ambach et al., 2000; cited from earlier work
# Text: (§1) Because our results differ from the general finding that the two major signaling cascades in other tissues mediating cofilin activity, which involve alterations in LIMK and/or SSH1 activity ([Wang et al., 2005]; [Spratley et al., 2011]; [Mizuno, 2013]; [Ohashi, 2015]; [Xu et al., 2021]), were not important in mediating CCK’s activation of cofilin in pancreatic acini, we explored the possible involvement of other phosphatases that have been reported to participate in cofilin activation in other tissues with other stimulants. The activation of the serine/threonine phosphatases type 1 (PP1) or ty ...
# [4] = system: MEK1; details: non ATP-competitive; reference not given; cited from earlier work
# [5] = system: MEK2; details: non ATP-competitive; reference not given; cited from earlier work
# [6] = system: PP2A / PP1; details: low concentrations; ref Ishihara et al., 1989; Takai et al., 1992; Lutz et al., 1993; Schmidt et al., 1994; Walsh et al., 1997; cited from earlier work
# Text: (Figures 5, 6) In human T lymphocytes, neurons, the 293 T cell line (human embryonic kidney 293 cells) and HeLa cells, it is reported that activation of cofilin can occur due its dephosphorylation through the co-stimulation activation of accessory receptors (e.g.,.CD2, CD3 or CD28) by CD3xCD28 mAb, with Endothelin-1 (ET-1), and the Ca^2+ ionophore A23187, which is mediated by activation of serine protein phosphatases ([Ambach et al., 2000]; [Wang et al., 2005]; [Tam et al., 2019]). Therefore, to explores the possible role of the protein phosphatases PP1, PP2A, PP2B in CCK-8-induced activation ...
# [7] = system: parotid acinar cells; parameters: method as in Tamaki and Yamashina, 2002; details: ref Tamaki and Yamashina, 2002; cited from earlier work
# [8] = system: PP2A; details: cited from earlier work
# Text: as §1
# [9] = system: pancreas; parameters: method as in Waschulewski et al., 1996; details: ref Waschulewski et al., 1996; cited from earlier work
# [10] = system: cofilin / phospho-PP2A association; assay: co-immunoprecipitation of cofilin with phospho-PP2A (pY307) in pancreatic acini; assay type: cell-based, rat; details: legend: kbNB 0.1 µM or PP2 10 µM, 3 h; CCK-8 100 nM, TPA 1 µM
# Procedure: For co-immunoprecipitation, 600 μg of protein was incubated with 15 μL of the anti-cofilin antibody (Santa Cruz Biotechnology, Inc. Dallas, TX) and 25 μL of protein A/G agarose beads (Thermo-Fisher Scientific. Waltham, MA) overnight at 4°C under agitation. Samples were washed three times with lysis buffer, re-suspended in 12.5 μL of Sample Buffer, Laemlii 2x concentrate and boiled for 5 min before western blotting.
# FIGURE 8 Effect of a PKD inhibitor, kbNB, or a Src inhibitor, PP2, on the ability of CCK-8 (100 nM) and TPA (1 µM) to stimulate the association of cofilin with either phospho-PP2A (A) or total PP2A (B). Isolated pancreatic acini were incubated in the absence or presence of kbNB (0.1 µM) or PP2 (10 µM) for 3 h and then incubated with no addition (control), CCK-8 (100 nM, 3 min) or TPA (1 μM, 5 min), and then lysed. Equal amounts of protein were co-immunoprecipitated with an anti-cofilin (Santa Cruz, SC-376476) and then subjected to Western blots using anti-pY307 PP2A and anti-PP2A. Bands were visualized using chemiluminescence and quantified by densitometry. Top: Results of a representative blot of four independent experiments are shown. Bottom: Means ± S.E. of at least 4 independent experiments. Results are expressed as % of basal stimulation of the control group. N.S., No significant.
# [11] = system: p38α; details: reference not given; cited from earlier work
# [12] = system: p38β; details: reference not given; cited from earlier work
# [13] = 3 h, CCK-8 0.3 and 100 nM 3 min
smiles,measurement,setting,value
Oc1c2ccccc2c2c3c(cccc13)N=N2 [SP600125],reversal of cofilin dephosphorylation by CCK-8,[1]; CCK-8 0.3 and 100 nM 3 min,completely reversed
same,IC50,[2],110 nM
C=CC[C@@H]1/C=C(\C)C[C@H](C)C[C@H](OC)[C@H]2O[C@@](O)(C(=O)C(=O)N3CCCC[C@H]3C(=O)O[C@H](/C(C)=C/[C@@H]3CC[C@@H](O)[C@H](OC)C3)[C@H](C)[C@@H](O)CC1=O)[C@H](C)C[C@@H]2OC [FK-506],effect on CCK-8 or TPA's activation of cofilin,"[1]; FK-506 10 µM 3 h, CCK-8 0.3 and 100 nM 3 min, TPA 1 µM 5 min",had no effect
same,effect on dephosphorylation of cofilin in human T lymphocytes,[3],did not affect the dephosphorylation of cofilin in human T lymphocytes
N#CC(=C(/N)Sc1ccccc1N)/C(C#N)=C(/N)Sc1ccccc1N [U0126],IC50,[4],72 nM
same,reversal of cofilin dephosphorylation by CCK-8,[1]; CCK-8 0.3 and 100 nM 3 min,"Only preincubation with the JNK inhibitor, SP600125 (Figure 10C), and the ROCK inhibitor, Y-27632, (Figure 10D), completely reversed cofilin dephosphorylation by CCK-8"
same,IC50,[5],58 nM
COC[C@@H]([C@H](O)[C@H](O)C(=O)NCC[C@H](C)c1nc(/C=C/C[C@@H]2O[C@]3(C[C@@H](O)[C@@H]2C)O[C@H]([C@H](C[C@H](O)[C@H](C)[C@H](O)[C@H](C)/C=C(C)/C(C)=C/C=C/C(C)=C\C#N)OC)[C@H](OP(=O)(O)O)C3(C)C)co1)N(C)C [calyculin A],selectivity PP1/PP2A/PP2B,[6],"inhibits equally PP1 and PP2A activity, but not PP2B"
same,decrease of basal level of cofilin phosphorylation,"[1]; 3 h, no stimulant",24%
same,inhibition of cofilin activation stimulated by CCK-8,[1]; [13],completely inhibited
C=C1[C@@H](O)[C@@H]2O[C@]3(CC[C@H](/C=C/[C@@H](C)[C@@H]4CC(C)=C[C@@]5(O[C@H](C[C@@](C)(O)C(=O)O)CC[C@H]5O)O4)O3)CC[C@H]2O[C@@H]1[C@@H](O)C[C@H](C)[C@H]1O[C@@]2(CCCCO2)CC[C@H]1C [okadaic acid],greater inhibitory effect on PP2A over PP1,[6],50-250 fold
same,decrease of basal level of cofilin phosphorylation,"[1]; 3 h, no stimulant",12%
same,inhibition of cofilin activation stimulated by CCK-8,[1]; [13],completely inhibited
same,effect on amylase release in parotid acinar cells,[7],disrupted amylase release in parotid acinar cells
same,phosphatase selectivity in pancreatic acini,"[8]; nanomolar concentrations, pancreatic acini, ref Wagner et al., 1992",only inhibit PP2A
same,IC50,"[8]; pancreatic acinar cells, ref Lutz et al., 1993, read-out: IC50, CCK1R-stimulated phosphatase activity (PP2A) in cytosol of pancreatic acinar cells",0.2 nM
same,effect on stimulated enzyme secretion in pancreas,[9],completely blocked stimulated enzyme secretion in pancreas
CN(C)CCCn1cc(C2=C(c3c[nH]c4ccccc34)C(=O)NC2=O)c2ccccc21 [GF109203X],effect on basal phosphorylation level of cofilin,"[1]; GFX 5 µM, kbNB 0.1 µM or PP2 10 µM, 3 h, no stimulant",None of these inhibitors altered the basal phosphorylation level of cofilin
same,reversal of cofilin dephosphorylation stimulated by CCK-8 and TPA,"[1]; GFX 5 µM, kbNB 0.1 µM or PP2 10 µM, 3 h, CCK-8 100 nM 3 min, TPA 1 µM 5 min",completely reversed
same,inhibition of decrease in phospho-PP2A co-immunoprecipitation stimulated by CCK-8 and TPA,[10],completely inhibited
Oc1ccc(-c2nc(-c3ccncc3)c(-c3ccc(F)cc3)[nH]2)cc1 [SB202190],IC50,[11],[…]
same,reversal of cofilin dephosphorylation by CCK-8,[1]; CCK-8 0.3 and 100 nM 3 min,not PI3K or p38
